The values that follow come from paper PMC10353189, “Hybridization of the effective pharmacophores for treatment of epilepsy: design, synthesis, in vivo anticonvulsant activity, and in silico studies of phenoxyphenyl-1,3,4-oxadiazole-thio-N-phenylacetamid hybrids” (BMC Chemistry, 2023).

Like-named read-outs stand apart in the source and are kept apart here.

Test [1] relates to PTZ-induced lethal convulsion in mice. The experiment in a line: Pentylenetetrazole (PTZ) induced seizure test. The format is in vivo, Male NMRI mice. The conditions noted are these: Mus musculus, dose 5 mg/kg ip.
Test [2] has as its system MES-induced seizure in mice. The experiment in a line: Maximal electroshock (MES) induced seizure test. Type of test: in vivo, Male NMRI mice. To be noted: Mus musculus; for responders at 1 mg/kg: dose 1 mg/kg ip; for responders at 2 mg/kg: dose 2 mg/kg ip; for responders at 5 mg/kg: dose 5 mg/kg ip; for responders at 10 mg/kg: dose 10 mg/kg ip; for responders at 20 mg/kg: dose 20 mg/kg ip. (Protection in the maximal electroshock model is a classic sign of anticonvulsant action.)

The mark [3] stands for this setting: 30 min before PTZ 100 mg/kg ip, read-out: PTZ Number of animals protected / Number of tested animals (converted).
The mark [4] stands for this setting: PTZ 100 mg/kg ip, read-out: PTZ %Protection.
Where [5] appears, read: MES 50 mA, 60 Hz, 0.2 s, read-out: MES Number of animals protected / Number of tested animals (converted).

Regarding `O=C(CSc1nnc(-c2ccccc2Oc2ccccc2)o1)Nc1cccc(Cl)c1` [Compound 8g, N-(3-chlorophenyl)-2-((5-(2-phenoxyphenyl)-1,3,4-oxadiazol-2-yl)thio)acetamide], the responders at 5 mg/kg in test [1] (setting [3]) is 0%. For the same compound, in test [1] (setting [4]), the responders at 5 mg/kg amounted to 0%. Moreover, in test [2] (setting [5]), the responders at 1 mg/kg was 62.5%, the responders at 2 mg/kg was 25%, the responders at 5 mg/kg is 50% and the responders at 10 mg/kg was 75%. In addition, the responders at 20 mg/kg in test [2] (setting [5]) is 62.5%. In test [2] (read-out: MES %Protection), the responders at 1 mg/kg came to 62.5%, the responders at 2 mg/kg turned out to be 25%, the responders at 5 mg/kg stood at 50% and the responders at 10 mg/kg came to 75%. The responders at 20 mg/kg in test [2] (read-out: MES %Protection) worked out at 62.5%.

Take `O=C(CSc1nnc(-c2ccccc2Oc2ccccc2)o1)Nc1cc(Cl)cc(Cl)c1` [Compound 8h, N-(3,5-dichlorophenyl)-2-((5-(2-phenoxyphenyl)-1,3,4-oxadiazol-2-yl)thio)acetamide]: the responders at 5 mg/kg in test [1] (setting [3]) was 0%. Also, in test [1] (setting [4]), the responders at 5 mg/kg came to 0%. Besides, in test [2] (setting [5]), the responders at 1 mg/kg is 0%, the responders at 2 mg/kg was 25%, the responders at 5 mg/kg is 25% and the responders at 10 mg/kg was 25%. The responders at 20 mg/kg in test [2] (setting [5]) is 50%. For the same compound, in test [2] (read-out: MES %Protection), the responders at 1 mg/kg turned out to be 0%, the responders at 2 mg/kg turned out to be 25%, the responders at 5 mg/kg came to 25% and the responders at 10 mg/kg was 25%. The responders at 20 mg/kg in test [2] (read-out: MES %Protection) was 50%.
